Results as given in US20240408175A1, “BMP9 OR AN AGONIST THEREOF AND ITS USES RELATED TO REDUCING METASTASIS OF CANCER” (THE UAB RESEARCH FOUNDATION, priority 2021, published 2024).
Values belong to the molecule of their own block, whether it stands above or below them. Residues, ends and D or L forms follow the SMILES beside them. *: point of attachment. Cbz = O=C(OCc1ccccc1)*

Legend:
SOX2 = SOX2 expression by Western blot / qRT-PCR in cancer cells; assay type: cell-based, human; settings: for effect on SOX2 repression by BMP9: 1 h pretreatment (5 μM SB431542, 3 μM ML347, 0.8 μM LDN193189), then BMP9 24 hours; for recovery in SOX2 repression by BMP2: PA1, 1 h pretreatment (5 μM DM, 3 μM ML347); for recovery in SOX2 repression by BMP2 / effect on SOX2 repression by BMP2: then BMP2 24 h; for effect on SOX2 repression by BMP2: PA1, 1 h pretreatment (5 μM SB431542, 0.8 μM LDN193189); for SOX2 protein and mRNA expression: attached and anchorage-independent conditions; for SOX2 protein and RNA levels: 10 nM, 24 hours, PA1 (and OVCAR3) cells
Experimental: Lysate and RNA preparation: 100,000-300,000 cells were seeded in a poly-HEMA coated 6-well plate for indicated times in full serum unless indicated otherwise. Cells were collected by centrifugation and lysed with trizol for RNA extraction or direct 2× lysis buffer for protein lysates.
Xenograft data were analyzed using parametric statistics as described in the legends. Survival curves were analyzed with log-rank statistics. In vitro experiments were analyzed using parametric statistics (ANOVA global test with Dunnett's/Sidak multiple comparison test as post-hoc tests as applicable and described in legend) and presented as the mean±SEM. All real time PCR's are relative semi quantitative RT-PCR's (hereby referred to as qRT-PCR) and are a combined quantitation of a minimum of 3 independent biological trials assayed in triplicate with biological replicates represented as individual scatter dots in the graphs or as indicated in legends. In all cases, statistical significance was set at a threshold of p<0.05. All statistical analyses were conducted with GraphPad Prism Software Ver. 9.0 and specific statistical test information described in figure legends.

[1] = system: Phosphorylated SMAD1 (pSMAD1); experiment: SMAD1 phosphorylation (Western blot); assay type: cell-based, human
[2] = system: SOX2 promoter methylation; experiment: Methylation-specific qPCR of SOX2 promoter; assay type: cell-based, human; settings: for SOX2 promoter methylation, inhibitor alone: 5 μM
Experimental: Genomic DNA was extracted, and bisulfite conversion was performed on 500 ng of gDNA using the MethylAmp DNA modification kit according to manufacturer's instructions. Relative quantitative RT-PCR (qPCR) was performed with methylation-specific and unmethylation-specific primers (see Table 3).

HEYT30 cells [3] = experiment: Paclitaxel cell viability with BMP9 in HEYT30 (FIG. 10, 13A); assay type: cell-based; settings: Homo sapiens, read-out: paclitaxel IC50 concentration
HEY-T30 cells = experiment: Flow cytometry, Annexin V / PI apoptosis; assay type: cell-based, human; settings: 3D, 48 hours; 10 nM BMP9, 300 nM paclitaxel or combination
Experimental: 700,000 cells were seeded in 60 mm poly-hema coated culture dishes, followed by incubation with 300 nM paclitaxel and 10 nM BMP9 alone or in simultaneous combination for 48 hours. Cells were centrifuged and resuspended in 1×binding buffer, followed by incubation with Annexin V and PI according to the manufacturer's procedure manual. The stained cell suspension was added to FACS tubes containing 200 μl 1×binding buffer and measured by BD LSRFortessa flow cytometer. The data were analyzed using BD FACSDiva (Becton Dickinson, NJ, USA) software. Annexin V-positive and PI-negative cells were considered to be in the early apoptotic phase, Annexin V-negative and PI-positive cells were considered to be in the necrosis phase, cells having positive staining for both Annexin-V and PI were considered to undergo late apoptosis and cells negative for Annexin V and PI were considered to be live cells.

HEYT30 cells [4] = experiment: CellTiter Glo 3D cell viability assay, paclitaxel with BMP9; settings: read-out: paclitaxel IC50 concentration, 3D conditions
SOX2 promoter = experiment: Chromatin immunoprecipitation (ChIP) at SOX2 promoter regions; assay type: cell-based, human; settings: for SMAD3 occupancy at p1, p3, p4, p5, p6 (ChIP): 1 h treatment
Experimental: ChIP was carried out using a modified version of a previously described protocol (Medeiros et al., 2009). Cells were grown to 80% confluency in 150 mm culture dishes. Cells were fixed at room temperature in 1% Paraformaldehyde solution (dilute 8% PFA in serum free media to get 1%) and rocked for 10 minutes. 10×Glycine was added to the plate and allowed to sit for 5 minutes at room temperature. Cells were scraped down and cell suspension were transferred to a cold centrifuge tube for centrifugation at 720 RCF at 4° C. for 10 minutes. Cells were rinsed with 1X Phosphate buffer saline and centrifugation repeated. Cell pellet was next resuspended in lysis buffers described in (Medeiros et al., 2009) to obtain nuclei pellet. This was followed by chromatin sonication, using QSonica sonicator (model CL-188) for four cycles (30% amplitude for 15 secs ON and 30 secs OFF) to obtain DNA fragments with a length from 150 to 300 bp. 1/10th of the supernatant was stored as input control. ChIP was performed using Protein A magnetic beads (Dynabeads, Invitrogen #10001D) to couple […] ChIP-grade antibodies for SMAD1, SMAD3, H3K27me3, H3K4me3, or rabbit IgG antibody overnight at 4 °C. DNA was purified using the PureLink Quick PCR Purification kit (Thermo Fisher Cat #: K310001) and enrichment of DNA fragments analyzed via relative quantitative RT-PCR (qPCR) using ChIP primers (see Table 2) to specific locations. Negative and positive control regions were included in all analysis.

[5] = system: OC cells (PA1, OVCA420, and OVCAR3); experiment: Live-dead analysis of anchorage-independent spheroids, TGF-β1/activin A; assay type: cell-based, human; settings: 1 nM TGFβ1, 10 nM activin, 24 hrs
Experimental: (§1) For Live/Dead analysis under anchorage independence, 1,000 cells were seeded in 96-well hydrogel-coated ultra-low attachment (ULA) plates (Corning #4515) for times indicated. Growth factor treatment was done under low serum 2.5% FBS condition (Cells were plated in 10% FBS to allow spheroid formation before beginning treatment). Cells were then stained with 2 μM Calcein-AM and 4 μM Ethidium-homodimer for 30 min before imaging. z-stacked images were obtained using the Zeiss LSM700 Confocal microscope (Microscopy and Flow Cytometry Core, University of South Carolina) and NIKON A1 Confocal microscope (UAB High Resolution Imaging Facility). Fluorescent quantification was performed using ImageJ Fiji software to calculate the Corrected Total Cell Fluorescent (CTCF)=Integrated Density−(Area of selected cell×Mean fluorescence of background readings) per spheroid.

[6] = system: 1-kb SOX2 promoter reporter; experiment: pGL3-SOX2 promoter-reporter luciferase assay in HEK293 cells; assay type: cell-based, human
Experimental: HEK293 cells were transfected with the pGL3-SOX2 promoter-luciferase reporter plasmid construct and SV40-renilla for 24h. […] According to the manufacturer's instruction, cells were collected and lysed in […] passive lysis buffer. To measure luciferase activity, […] of lysate was added to […] of dual Luciferase Assay Reagent, and luminescence was quantitated using a luminometer (Biotek).

PA1 cells = experiment: Live/Dead analysis under anchorage independence (anoikis), PA1 cells; assay type: cell-based, human; settings: 10 nM for 24 hrs after 48 hours anchorage independence
Experimental: as §1

Molecule: COc1ccc(-c2cnc3c(-c4cccc5ncccc45)cnn3c2)cc1 [ML347]
- baseline SOX2 levels in the absence of exogenous ligand (SOX2; 3 μM ML347, PA1): increased
- effect on SOX2 repression by BMP9 (SOX2): abrogated
- recovery in SOX2 repression by BMP2 (SOX2): 72%
- BMP9-induced phosphorylation of SMAD1 ([1]; 3 μM ML347): completely suppressed
- suppression of BMP2-induced SMAD1 phosphorylation ([1]; 3 μM ML347): 40%

Molecule: Nc1ncn([C@@H]2O[C@H](CO)[C@@H](O)[C@H]2O)c(=O)n1 [50-Aza, 50-azacytidine]
- SOX2 mRNA downregulation by BMP9 (SOX2; PA1, 5 μM with 10 nM rhBMP9): suppressed
- SOX2 mRNA, inhibitor alone (SOX2; SKOV3 cells, 5 μM): concomitant increase
- BMP9-induced SOX2 transcriptional repression (SOX2; SKOV3 cells, 5 μM with 10 nM rhBMP9): repressed
- BMP9-induced SOX2 promoter methylation ([2]; PA1, 5 μM 48 h pretreatment, then rhBMP9 24 h): abrogated
- SOX2 promoter methylation, inhibitor alone ([2]; PA1 cells): minimal effect
- SOX2 promoter methylation, inhibitor alone ([2]; SKOV3 cells, 48 hours): suppressed SOX2 promoter methylation significantly

Molecule: CC(=O)O[C@H]1C(=O)[C@@]2(C)[C@H]([C@H](OC(=O)c3ccccc3)[C@]3(O)C[C@H](OC(=O)[C@H](O)[C@@H](NC(=O)c4ccccc4)c4ccccc4)C(C)=C1C3(C)C)[C@]1(OC(C)=O)CO[C@@H]1C[C@@H]2O [paclitaxel]
- IC50 (HEYT30 cells [3]; 24-hour pretreatment 1 nM BMP9, then combination 48 hours): 90.8 nM
- IC50 (HEYT30 cells [3]; 24-hour pretreatment 5 nM BMP9, then combination 48 hours): 22.6 nM
- IC50 (HEYT30 cells [3]; 24-hour pretreatment 10 nM BMP9, then combination 48 hours): 4.1 nM
- IC50 (HEYT30 cells [3]; 48 h, simultaneous 1 nM BMP9, 48 hours): 91.7 nM
- IC50 (HEYT30 cells [3]; 48 h, simultaneous 5 nM BMP9, 48 hours): 89 nM
- IC50 (HEYT30 cells [3]; 48 h, simultaneous 10 nM BMP9, 48 hours): 73 nM
- IC50 (HEYT30 cells [3]; 48 h, untreated control (no BMP9), simultaneous series, 48 hours): 107 nM
- IC50 (HEYT30 cells [3]; untreated control (no BMP9), 24-hour pretreatment series): 113 nM
- apoptosis in cells (HEY-T30 cells): 12.8%
- IC50 (HEYT30 cells [4]; 24-hour pretreatment 5 nM BMP9): 286 nM
- IC50 (HEYT30 cells [4]; 24-hour pretreatment 10 nM BMP9): 211 nM

- BMP9-induced H3K27me3 occupancy on the SOX2 promoter (ChIP) (SOX2 promoter; PA1, rhBMP9 + LDN193189): significantly reduced
Molecule: c1ccc2c(-c3cnn4cc(-c5ccc(N6CCNCC6)cc5)cnc34)ccnc2c1 [LDN193189]
- increase of SOX2 protein levels at baseline in the absence of exogenous ligand (SOX2; 0.8 μM LDN193189, PA1): 33
- effect on SOX2 repression by BMP9 (SOX2): blocked
- effect on SOX2 repression by BMP2 (SOX2): blocked
- BMP2- and BMP9-induced SMAD1/5 phosphorylation ([1]; 0.8 μM LDN193189, PA1 and OVCAR3): Full inhibition

- SMAD3 occupancy at p1, p3, p4, p5, p6 (ChIP) (SOX2 promoter): consistent SMAD3 enrichment
Molecule: TGF-β1: transforming growth factor β1 ligand
- live/dead ratio of spheroids [5]: increased
- SOX2 protein and mRNA expression (SOX2): increased
- luciferase activity of SOX2 promoter reporter ([6]; TGF-β1 400 pM, 24 h): increased
- H3K4me3 at SMAD3 motifs p1, p3, p4, p5, p6 (ChIP) (SOX2 promoter; PA1, 1-h TGF-β1): enrichment

- SMAD3 occupancy at p1, p3, p4, p5, p6 (ChIP) (SOX2 promoter): occupied by SMAD3
Molecule: activin A: activin A, TGF-β family member
- SOX2 protein and mRNA expression (SOX2): increased
- luciferase activity of SOX2 promoter reporter ([6]; 10 nM activin A, 24 hours): increased

Molecule: CC[C@H](C)n1cc(C)c2c(C(=O)NCc3c(C)cc(C)[nH]c3=O)cc(-c3ccc(N4CCNCC4)nc3)cc21 [GSK126]
- SOX2 repression by BMP9 (SOX2; 5 μM GSK126, multiple cell lines): abrogated

Molecule: CC(C)C[C@@H](C=O)NC(=O)[C@H](CC(C)C)NC(=O)[C@H](CC(C)C)NC(=O)OCc1ccccc1 [MG132] (Cbz-Leu-Leu-Leu-aldehyde)
- effect on BMP's ability to repress SOX2 (SOX2; PA1, 0.5 μM MG132 1 hour, then rhBMP2/9): No effect

Molecule: NC(=O)c1ccc(-c2nc(-c3ccc4c(c3)OCO4)c(-c3ccccn3)[nH]2)cc1 [SB431542]
- TGF-β1-induced SOX2 increases (SOX2; 5 μM SB431542 1 h, then 400 pM TGF-β1 24 h): suppressed
- effect on SOX2 repression by BMP9 (SOX2): did not significantly alter
- effect on SOX2 repression by BMP2 (SOX2): did not alter
- pSMAD1 in response to BMP2 and -9 ([1]; 5 μM inhibitor): no effects
- TGF-β1-induced H3K4me3 enrichment (ChIP) (SOX2 promoter; PA1, TGF-β1 + SB431542): abrogated

Molecule: c1cc(-c2cnn3cc(-c4ccc(OCCN5CCCCC5)cc4)cnc23)ccn1 [DM, Dorsomorphin]
- recovery in SOX2 levels in the presence of BMP9 (SOX2; PA1, 5 μM pretreatment 1 h, then rhBMP9 24 hours): 34.3%
- recovery in SOX2 repression by BMP2 (SOX2): 23%

B1: BMP4: recombinant human BMP4, BMP ligand (protein, UniProt P12644 293-408, looked up)
Bone morphogenetic protein 4: SPKHHSQRARKKNKNCRRHSLYVDFSDVGWNDWIVAPPGYQAFYCHGDCPFPLADHLNSTNHAIVQTLVNSVNSSIPKACCVPTELSAISMLYLDEYDKVVLKNYQEMVVEGCGCR
- decrease of live-to-dead cell ratio (PA1 cells): 1.93
- SOX2 protein and RNA levels (SOX2): downregulation

B2: BMP10: recombinant human BMP10, highest sequence homology to BMP9 (protein, UniProt O95393 317-424, looked up)
Bone morphogenetic protein 10: NAKGNYCKRTPLYIDFKEIGWDSWIIAPPGYEAYECRGVCNYPLAEHLTPTKHAIIQALVHLKNSQKASKACCVPTKLEPISILYLDKGVVTYKFKYEGMAVSECGCR
- anoikis (PA1 cells): did not alter
- SOX2 protein and RNA levels (SOX2): did not alter
- activation of SMAD1/5 [1]: failed to activate
